Data reported in patent US20230077362A1 (CORTEVA AGRISCIENCE LLC, priority 2019, published 2023).
Like-named read-outs stand apart in the source and are kept apart here.

Columns and labels:
[1] = test system: Beet Armyworm (Spodoptera exigua) ("BAW"), second instar larvae; assay: Bioassay on beet armyworm (BAW), 128-well diet tray assay; assay type: in vivo; settings: for pest or weed control at 50 µg/cm2: Spodoptera exigua; for BAW rating: Table ABC, species BAW, C = not tested, D = no activity noticed
In short: (§1)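 Each value represents average percent mortality from eight wells. Larvae were kept in clear-covered trays at 25° C. for five to seven days on a 14-hour light, 10-hour dark schedule before scoring.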

[2] = test system: Cabbage Looper (Trichoplusia ni) ("CL"), second instar larvae; assay: Bioassay on cabbage looper (CL), 128-well diet tray assay; assay type: in vivo; settings: for pest or weed control at 50 µg/cm2: Trichoplusia ni; for CL rating: Table ABC, species CL, C = not tested, D = no activity noticed
In short: as §1

[3] = read-out: BAW (Biological Results, rating)
[4] = read-out: CL (Biological Results, rating)

Row | Compound | pest or weed control at 50 µg/cm2 [1, 3] [%] | pest or weed control at 50 µg/cm2 [2, 4] [%] | pest or weed control at 50 µg/cm2 ([1]; read-out: BAW rating) [%] | pest or weed control at 50 µg/cm2 ([2]; read-out: CL rating) [%] | also measured
1 | CC(C)c1ccc(Cl)cc1N1C(=O)CS/C1=N\C(=O)Nc1ccc(-c2ncn(-c3ccc(OC(F)(F)F)cc3)n2)cc1F [Compound J46, (Z)-1-(3-(5-Chloro-2-isopropylphenyl)-4-oxothiazolidin-2-ylidene)-3-(2-fluoro-4-(1-(4-(trifluoromethoxy)phenyl)-1H-1,2,4-triazol-3-yl)phenyl)urea] | 50 to 100 | 50 to 100 |  |  | 
2 | Cc1ccc(COCC(F)(F)F)c(N2C(=O)CS/C2=N\C(=O)Nc2ccc(-c3ncn(-c4ccc(S(F)(F)(F)(F)F)cc4)n3)cc2C(F)(F)F)c1 [Compound J626, (Z)-1-(3-(5-Methyl-2-((2,2,2-trifluoroethoxy)methyl)phenyl)-4-oxothiazolidin-2-ylidene)-3-(4-(1-(4-(pentafluoro-λ^6-sulfaneyl)phenyl)-1H-1,2,4-triazol-3-yl)-2-(trifluoromethyl)phenyl)urea] |  |  | 50 to 100 | 50 to 100 | 
3 | COC(C)c1ccc(C)cc1N1C(=O)CS/C1=N\C(=O)Nc1ccc(-c2ncn(-c3ccc(C(F)F)cn3)n2)cc1F (stereo not shown) [Compound J341] |  |  |  |  | BAW (Biological Results, rating) ([1]; Beet Armyworm (Spodoptera exigua), C = Not Tested): A (50-100); CL (Biological Results, rating) ([2]; Cabbage Looper (Trichoplusia ni), C = Not Tested): A (50-100)
4 | CCOc1ccc(-n2cnc(-c3ccc(NC(=O)/N=C4\SCC(=O)N4c4cc(C)ccc4COCC(F)(F)F)c(F)c3)n2)cc1 [Compound J625] |  |  |  |  | BAW rating [1]: A (50-100); CL rating [2]: A (50-100)
5 | Cc1ccc(C(C)C)c(N2C(=O)CS/C2=N\C(=O)Nc2ccc(-n3cnc(-c4ccc(OC(F)(F)F)cc4)n3)cc2C)c1 [Compound J466, (Z)-1-(3-(2-Isopropyl-5-methylphenyl)-4-oxothiazolidin-2-ylidene)-3-(2-methyl-4-(3-(4-(trifluoromethoxy)phenyl)-1H-1,2,4-triazol-1-yl)phenyl)urea] |  |  | 50 to 100 | 50 to 100 | 
6 | Cc1ccc(OCC(F)(F)F)c(N2C(=O)CS/C2=N\C(=O)Nc2ccc(-c3ncn(-c4ccc(C(F)(F)F)cc4)n3)cc2F)c1 [Compound J63, (Z)-1-(2-Fluoro-4-(1-(4-(trifluoromethyl)phenyl)-1H-1,2,4-triazol-3-yl)phenyl)-3-(3-(5-methyl-2-(2,2,2-trifluoroethoxy)phenyl)-4-oxothiazolidin-2-ylidene)urea] | 50 to 100 | 50 to 100 |  |  | 
7 | Cc1ccc(C(C)C)c(N2C(=O)CS/C2=N\C(=O)Nc2ccc(-c3ncn(-c4ccc(OC(F)(F)F)cn4)n3)cc2F)c1 [Compound J270, (Z)-1-(2-Fluoro-4-(1-(5-(trifluoromethoxy)pyridin-2-yl)-1H-1,2,4-triazol-3-yl)phenyl)-3-(3-(2-isopropyl-5-methylphenyl)-4-oxothiazolidin-2-ylidene)urea] | 50 to 100 | 50 to 100 |  |  | 
8 | Cc1ccc(C(F)(F)F)c(N2C(=O)CS/C2=N\C(=O)Nc2ccc(-c3ncn(-c4ccc(OC(F)(F)F)cn4)n3)cc2F)c1 [Compound J271, (Z)-1-(2-Fluoro-4-(1-(5-(trifluoromethoxy)pyridin-2-yl)-1H-1,2,4-triazol-3-yl)phenyl)-3-(3-(5-methyl-2-(trifluoromethyl)phenyl)-4-oxothiazolidin-2-ylidene)urea] | 50 to 100 | 50 to 100 |  |  | 
9 | (Z)-1-(3-(5-(Dimethylamino)-2-isopropylphenyl)-4-oxothiazolidin-2-ylidene)-3-(2-fluoro-4-(1-(6-(trifluoromethyl)pyridazin-3-yl))-1H-1,2,4-triazol-3-yl)phenyl)urea [Compound J393] |  |  |  |  | BAW rating [1]: A (50-100); CL rating [2]: A (50-100)
10 | COC(c1ccc(C)cc1N1C(=O)CS/C1=N\C(=O)Nc1ccc(-c2ncn(-c3ccc([S+]([O-])C(F)(F)F)cc3)n2)cc1F)C(F)(F)F (stereo not shown) [Compound J386, (Z)-1-(2-Fluoro-4-(1-(4-((trifluoromethyl)sulfinyl)phenyl)-1H-1,2,4-triazol-3-yl)phenyl)-3-(3-(5-methyl-2-(2,2,2-trifluoro-1-methoxyethyl)phenyl)-4-oxothiazolidin-2-ylidene)urea] |  |  | 50 to 100 | 50 to 100 | 
11 | Cc1cccc(N2C(=O)CS/C2=N\C(=O)Nc2ccc(-c3ncn(-c4ccc(S(F)(F)(F)(F)F)cc4)n3)cc2F)c1COCC(F)(F)F [Compound J567] |  |  |  |  | BAW rating [1]: A (50-100); CL rating [2]: A (50-100)
12 | COc1ccc(C(C)C)c(N2C(=O)CS/C2=N\C(=O)Nc2ccc(-c3ncn(-c4ccc(OC(F)(F)F)cn4)n3)cc2F)c1 [Compound J239, (Z)-1-(2-Fluoro-4-(1-(5-(trifluoromethoxy)pyridin-2-yl)-1H-1,2,4-triazol-3-yl)phenyl)-3-(3-(2-isopropyl-5-methoxyphenyl)-4-oxothiazolidin-2-ylidene)urea] | 50 to 100 | 50 to 100 |  |  | 
13 | COC(c1ccc(C)cc1N1C(=O)CS/C1=N\C(=O)Nc1ccc(-c2cn(-c3ccc(OC(F)(F)F)cc3)nn2)cc1)C(F)(F)F (stereo not shown) [Compound J494, (Z)-1-(3-(5-Methyl-2-(2,2,2-trifluoro-1-methoxyethyl)phenyl)-4-oxothiazolidin-2-ylidene)-3-(4-(1-(4-(trifluoromethoxy)phenyl)-1H-1,2,3-triazol-4-yl)phenyl)urea] |  |  | 50 to 100 | 50 to 100 | 
14 | CCC(C)Oc1ccc(C)cc1N1C(=O)CS/C1=N\C(=O)Nc1ccc(-c2ncn(-c3ccc(OC(F)(F)F)cc3)n2)cc1F (stereo not shown) [Compound J51, (Z)-1-(3-(2-(sec-Butoxy)-5-methylphenyl)-4-oxothiazolidin-2-ylidene)-3-(2-fluoro-4-(1-(4-(trifluoromethoxy)phenyl)-1H-1,2,4-triazol-3-yl)phenyl)urea] | 50 to 100 | 50 to 100 |  |  | 
15 | COc1cc(-c2ncn(-c3ccc(OC(F)(F)F)cc3)n2)ccc1NC(=O)/N=C1\SCC(=O)N1c1cc(C)ccc1C(C)OC (stereo not shown) [Compound J90, (Z)-1-(2-Methoxy-4-(1-(4-(trifluoromethoxy)phenyl)-1H-1,2,4-triazol-3-yl)phenyl)-3-(3-(2-(1-methoxyethyl)-5-methylphenyl)-4-oxothiazolidin-2-ylidene)urea] | 50 to 100 | 50 to 100 |  |  | 
16 | CC(C)c1ccc(C#N)cc1N1C(=O)CS/C1=N\C(=O)Nc1ccc(-c2ncn(-c3ccc(S(=O)(=O)C(F)(F)F)cc3)n2)cc1C#N [Compound J413, (Z)-1-(3-(5-Cyano-2-isopropylphenyl)-4-oxothiazolidin-2-ylidene)-3-(2-cyano-4-(1-(4-((trifluoromethyl)sulfonyl)phenyl)-1H-1,2,4-triazol-3-yl)phenyl)urea] |  |  | 50 to 100 | 50 to 100 | 
17 | CC(C)c1ccc(N(C)C)cc1N1C(=O)CS/C1=N\C(=O)Nc1ccc(-c2nnc(-c3ccc(OC(F)(F)F)cc3)s2)cc1F [Compound J506, (Z)-1-(3-(5-(Dimethylamino)-2-isopropylphenyl)-4-oxothiazolidin-2-ylidene)-3-(2-fluoro-4-(5-(4-(trifluoromethoxy)phenyl)-1,3,4-thiadiazol-2-yl)phenyl)urea] |  |  | 50 to 100 | 50 to 100 | 
18 | Cc1cc(-c2ncn(-c3ccc(OC(F)(F)F)cc3)n2)ccc1NC(=O)/N=C1\SCC(=O)N1c1cccc(C)c1COCC(F)(F)F [Compound J576] |  |  |  |  | BAW rating [1]: A (50-100); CL rating [2]: A (50-100)
19 | Cc1cc(-n2cnc(-c3ccc(OC(F)(F)F)cc3)n2)ccc1NC(=O)/N=C1\SCC(=O)N1c1cc(N(C)C)ccc1C(F)(F)F [Compound J468, (Z)-1-(3-(5-(Dimethylamino)-2-(trifluoromethyl)phenyl)-4-oxothiazolidin-2-ylidene)-3-(2-methyl-4-(3-(4-(trifluoromethoxy)phenyl)-1H-1,2,4-triazol-1-yl)phenyl)urea] |  |  | 50 to 100 | 50 to 100 | 
20 | Cc1ccc(CC(F)(F)F)c(N2C(=O)CS/C2=N\C(=O)NCC(F)c2ccc(-c3ncn(-c4ccc(OC(F)(F)F)cc4)n3)cc2)c1 (stereo not shown) [Compound H13] | 50 to 100 | 50 to 100 |  |  | 
21 | Cc1ccc(C(C)C)c(N2C(=O)CS/C2=N\C(=O)Nc2ccc(-c3ncn(-c4ccc(C(F)(F)F)cn4)n3)cc2Cl)c1 [Compound J295, (Z)-1-(2-Chloro-4-(1-(5-(trifluoromethyl)pyridin-2-yl)-1H-1,2,4-triazol-3-yl)phenyl)-3-(3-(2-isopropyl-5-methylphenyl)-4-oxothiazolidin-2-ylidene)urea] | 50 to 100 | 50 to 100 |  |  | 
22 | CC(C)c1ccc(N(C)C)cc1N1C(=O)CS/C1=N\C(=O)Nc1ccc(-c2cn(-c3ccc(S(F)(F)(F)(F)F)cc3)cn2)cc1F [Compound J603, (Z)-1-(3-(5-(Dimethylamino)-2-isopropylphenyl)-4-oxothiazolidin-2-ylidene)-3-(2-fluoro-4-(1-(4-(pentafluoro-λ^6-sulfaneyl)phenyl)-1H-imidazol-4-yl)phenyl)urea] |  |  | 50 to 100 | 50 to 100 | 
23 | Cc1ccc(COCC(F)(F)F)c(N2C(=O)CS/C2=N\C(=O)Nc2ccc(-c3ncn(-c4ccc(OC(F)(F)F)cc4)n3)cc2)c1 [Compound J331, (Z)-1-(3-(5-Methyl-2-((2,2,2-trifluoroethoxy)methyl)phenyl)-4-oxothiazolidin-2-ylidene)-3-(4-(1-(4-(trifluoromethoxy)phenyl)-1H-1,2,4-triazol-3-yl)phenyl)urea] | 50 to 100 | 50 to 100 |  |  | 
